A word on the EC50: it is the concentration that produces a half-maximal response. As usually defined, the fold induction is the ratio of treated to control signal. One may read the Emax as the greatest response seen or fitted, relative to the assay's reference.

The record followed here is US8501955B2, “Acetamide derivatives as glucokinase activators, their process and medicinal application” (Advinus Therapeutics Private Limited, priority 2007, dated 2013).

One experiment relates to primary rat hepatocytes. Briefly: Measurement of glycogen synthesis in primary rat hepatocytes. The experiment is classed as cell-based. The conditions noted are these: 10 mM glucose, fold increase over DMSO control; for Fold increase in glycogen synthesis at 10 μM compound: 3 hours; for fold induction at 10 µM: Rattus norvegicus, Hepatocyte, 3 h, 10 μM compound. The procedure: Primary hepatocytes are collected from male Wistar rats, and tested for viability by trypan blue exclusion. Primary hepatocytes cultures with viability greater than 95% are selected for the glycogen synthesis assay. The cells are seeded in a 48-well plate at a density of 200,000 cells/well in 250 μl Minimal Essential Medium (MEM) containing 10% foetal calf serum (FCS) and 1.7 μM insulin, and incubated for 4 hours at 37° C. to allow attachment. The medium is replaced with fresh MEM containing 10% FCS, 1.7 μM insulin and 10 nM dexamethasone, and the cells are incubated for 16 hours at 37° C. The medium is then replaced with fresh MEM (serum-free) containing 2 μCi/ml of D-[U^14C]-Glucose along with 10 μM of the compound in a final DMSO concentration of 0.1%. The final glucose concentration is brought to 10 mM by the addition of D-Glucose (MEM already contains 5 mM glucose). The cells are incubated for 3 hours at 37° C. The cells are washed twice with 150 mM NaCl, lysed with 0.1 N NaOH, and the lysate precipitated with 8% w/v trichloroacetic acid (TCA) and 1 mg/well unlabeled glycogen as carrier. Cell debris is pelleted by centrifugation, the supernatant is removed, and the glycogen is precipitated with 63% ethanol. After another round of centrifugation, the supernatant is removed, and the pellet containing the precipitated glycogen is dried overnight. De novo synthesized glycogen is estimated in a scintillation counter (MicroBeta Trilux, Perkin Elmer), and expressed as fold increase over DMSO control.
The protocol for the glycogen assay is based on the method described in “Biochem J. 1990 Feb. 15; 266(1): 91-102” with a few minor modifications. The protocol for isolation of primary rat hepatocytes is based on the method described in “Methods in Enzymology, Vol. III. pp 34-50. Ed. by S. P. Colowick and N. O. Kaplan. New York, Academic Press, 1957” with a few minor modifications.
Compounds described in formula (I), in concentration ranges from 1.0 nM to 500 μM, are tested in glycogen synthesis assay described above.

Experiment [1] addresses T1, purified human recombinant GK (Homo sapiens, UniProt P35557).
T1 sequence (P35557 1-465): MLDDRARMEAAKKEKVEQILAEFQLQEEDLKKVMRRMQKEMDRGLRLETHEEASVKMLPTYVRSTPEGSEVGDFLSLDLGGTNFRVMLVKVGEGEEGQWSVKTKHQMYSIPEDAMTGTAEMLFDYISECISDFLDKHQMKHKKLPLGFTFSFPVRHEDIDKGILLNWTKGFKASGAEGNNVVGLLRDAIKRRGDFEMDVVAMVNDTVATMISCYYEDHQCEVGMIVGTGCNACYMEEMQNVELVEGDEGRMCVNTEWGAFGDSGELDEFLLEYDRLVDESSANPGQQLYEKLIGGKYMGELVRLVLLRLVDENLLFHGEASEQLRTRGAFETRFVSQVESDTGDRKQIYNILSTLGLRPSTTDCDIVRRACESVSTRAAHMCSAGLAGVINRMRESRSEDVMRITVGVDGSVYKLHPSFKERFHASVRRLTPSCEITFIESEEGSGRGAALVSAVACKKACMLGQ
Briefly: Glucokinase activity assay (coupled enzymatic GK/G6PD assay, NADH absorbance at 340 nm). Type of experiment: biochemical. The conditions noted are these: for EC50: EC50 of % change in S0.5 of glucokinase for glucose, sigmoidal fit, read-out: EC50 (with respect to % ΔS0.5); for % Emax (with respect to % ΔS0.5) / Emax: Emax of % change in S0.5, vehicle S0.5 = 0%, 0 mM glucose = 100%; for Emax: read-out: % Emax (with respect to % ΔS0.5). The text has this: The glucokinase (GK) assay is a coupled enzymatic assay. GK catalyzes the first step of glycolysis, the conversion of glucose to glucose-6-phosphate (G6P) in the presence of ATP. G6P in turn is converted by glucose-6-phosphate dehydrogenase (G6PD) to 6-phosphogluconate, a process that requires NAD, resulting in NADH formation. Since the GK-catalyzed step is the rate-limiting step of this coupled enzymatic process, the rate of accumulation of 6-phosphogluconate and NADH is directly proportional to the rate of glucose phosphorylation by GK. The rate of the GK-catalyzed reaction can therefore be measured by monitoring the increase in NADH absorbance at 340 nm.
The assay is carried out according to the protocol outlined in Hariharan et al (1997), Diabetes 46: 11-16. Briefly, the test compounds are incubated in a reaction mix containing 25 mM HEPES (pH 7.2), 10 mM MgCl2, 100 mM KCl, 5 mM ATP, 2 mM DTT, 0.5 mM NAD, 1 U/ml Leuconostoc mesenteroides G6PD, 0.3 U/ml of purified human recombinant GK, and different concentrations of glucose. Enzymatic activity is calculated from the initial reaction velocity, measured from the change in NADH absorbance as a function of time.
Compounds described in formula (I), in concentration ranges from 1.0 nM to […] are tested in the purified human recombinant glucokinase assay described above.
A compound is considered to be a glucokinase activator if it, in its testable range of concentrations, yields a higher rate of glucose phosphorylation than in its absence at a particular glucose concentration, for example at 5 mM glucose.
Compounds of general formula (I) are tested in the in vitro GK enzymatic assay to monitor dose-dependent effect on glucokinase activation (in kinetic mode), as described above, at various glucose concentrations. The S0.5 of glucokinase for glucose at different concentration of each compound of interest is calculated from the following modified version of the Michaelis-Menten equation, V=Vmax[S]^n/(S0.5^n+[S]^n), where [S] is the glucose concentration and n is the Hill coefficient (taken as 1.7 to account for the sigmoidal kinetics of glucokinase with respect to glucose). The S0.5 is plotted against the log of the compound concentration. The change in the S0.5 of glucokinase (ΔS0.5) for glucose is calculated by subtracting the S0.5 at each concentration of the compound from the S0.5 in the vehicle control. The ΔS0.5 is then normalized to a percent scale, where the S0.5 in the vehicle control is set to 0% and 0 mM glucose is set to 100%. The % ΔS0.5 is then plotted against the log of the compound concentration. The EC50 and Emax of % change in S0.5 is obtained from the sigmoidal fit of the data. Detailed protocol has been described in our copending application no. WO 2008/104994 which is incorporated herein by reference. Characterization data of some representative glucokinase activators of the present disclosure, which are illustrative but not limiting, are given in table 1 below.

Structures are written as SMILES. Some results are limits rather than exact numbers.

Take `O=C(O)Cc1nc(NC(=O)C(Oc2ccc(F)cc2F)c2ccc(S(=O)(=O)C3CC3)cc2)sc1Cl` (single isomer, unassigned; (+)) [Example F1, (+)-{5-Chloro-2-[2-(4-cyclopropanesulfonyl-phenyl)-2-(2,4-difluorophenoxy)acetyl-amino]thiazol-4-yl}-acetic acid]: the “Fold increase in glycogen synthesis at 10 μM compound” value (shortened to “Fold increase in glycogen synthesis”) in the experiment on primary rat hepatocytes is 4.5 fold. In experiment [1], the EC50 turned out to be 1270 nM and the “% Emax (with respect to % ΔS0.5)” value is listed as 90%.

As for `O=C(O)Cc1nc(NC(=O)C(Oc2ccc(F)cc2F)c2ccc(S(=O)(=O)C3CCCC3)cc2)sc1Cl` (single isomer, unassigned; (+)) [Example F2, (+)-{5-Chloro-2-[2-(4-cyclopentanesulfonyl-phenyl)-2-(2,4-difluorophenoxy)acety-lamino]thiazol-4-yl}acetic acid], in the experiment on primary rat hepatocytes, the “Fold increase in glycogen synthesis” value is given as 7.2 fold. In addition, in experiment [1], the half-maximal effective concentration (EC50) worked out at 670 nM and the “% Emax (with respect to % ΔS0.5)” value is 95%.

As for `O=C(O)Cc1csc(NC(=O)C(Oc2ccc(F)cc2F)c2ccc(S(=O)(=O)C3CC3)cc2)n1` (single isomer, unassigned; (+)) [Example F3, (+)-{2-[2-(4-Cyclopropanesulfonylphenyl)-2-(2,4-difluorophenoxy)acetylamino]thiazol-4-yl}acetic acid], the “Fold increase in glycogen synthesis” value in the experiment on primary rat hepatocytes came out at 7.0 fold. Also, in experiment [1], the half-maximal effective concentration (EC50) was determined as 2470 nM and the “% Emax (with respect to % ΔS0.5)” value was determined as 90%.

With `O=C(O)c1ccc(Oc2cnc(NC(=O)C(OC3CCOCC3)c3ccc(S(=O)(=O)C4CC4)cc3)s2)cc1` (single isomer, unassigned; (+)) [Example H7A, (+) 4-{2-[2-(4-Cyclopropanesulfonyl-phenyl)-2-(tetrahydro-pyran-4-yloxy)-acetylamino]-thiazol-5-yloxy}-benzoic acid], the fold induction at 10 µM in the experiment on primary rat hepatocytes is 7.7.

For `COc1ccc2nc(NC(=O)C(OC3CCOCC3)c3ccc(S(=O)(=O)C4CC4)cc3)sc2n1` (single isomer, unassigned; (+)) [Example H12A, (+)2-(4-Cyclopropanesulfonyl-phenyl)-N-(5-methoxy-thiazolo[5,4-b]pyridin-2-yl)-2-(tetrahydro-pyran-4-yloxy)-Acetamide], the fold induction at 10 µM in the experiment on primary rat hepatocytes was 5.

For `Cc1csc(NC(=O)C(Oc2ccc(F)cc2F)c2ccc(S(=O)(=O)C3CC3)cc2)n1` (centres unmarked) [Example A15, 2-(4-Cyclopropanesulfonylphenyl)-2-(2,4-difluorophenoxy)-N-(4-methyl-thiazol-2-yl)acetamide], the fold induction at 10 µM in the experiment on primary rat hepatocytes is 3.7.

`Cc1nc(NC(=O)C(Oc2ccc(F)cc2F)c2ccc(S(=O)(=O)C3CC3)cc2)sc1C(=O)O` (centres unmarked) [Example B12, 2-[2-(4-Cyclopropanesulfonylphenyl)-2-(2,4-difluorophenoxy)acetylamino]-4-methylthiazole-5-carboxylic acid]: the EC50 in experiment [1] is > 10000 nM.

Consider `O=C(O)Cc1csc(NC(=O)C(Oc2ccc(F)cc2F)c2ccc(S(=O)(=O)C3CCCC3)cc2)n1` (centres unmarked) [Example B14, {2-[2-(4-Cyclopentanesulfonylphenyl)-2-(2,4-difluorophenoxy)-acetylamino]-thiazol-4-yl}acetic acid], for which, in experiment [1], the EC50 was found to be 1600 nM and the Emax came out at 90%.

For the molecule `O=C(O)Cc1nc(NC(=O)C(Oc2ccc(F)cc2F)c2ccc(S(=O)(=O)C3CCCCC3)cc2)sc1Cl` (centres unmarked) [Example B15, {5-Chloro-2-[2-(4-cyclohexanesulfonylphenyl)-2-(2,4-difluorophenoxy)acetylamino]-thiazol-4-yl}acetic acid], in experiment [1], the concentration giving a half-maximal response (EC50) was found to be 670 nM and the maximal response (Emax) is 95%.

Regarding `CCOc1sc(NC(=O)C(Oc2ccc(F)cc2F)c2ccc(S(=O)(=O)C3CC3)cc2)nc1CC(=O)O` (centres unmarked) [Example B22, {2-[2-(4-Cyclopropanesulfonylphenyl)-2-(2,4-difluorophenoxy)acetylamino]-5-ethoxy-thiazol-4-yl}acetic acid], the concentration giving a half-maximal response (EC50) in experiment [1] was > 10000 nM.

Turning to `O=C(O)c1csc(NC(=O)C(Oc2ccc(Cl)cc2F)c2ccc(S(=O)(=O)C3CC3)cc2)n1` (centres unmarked) [Example B26, 2-[2-(4-Chloro-2-fluorophenoxy)-2-(4-cyclopropanesulfonylphenyl)acetylamino]thiazole-4-carboxylic acid], the 50% effective concentration (EC50) in experiment [1] was > 10000 nM.

For `O=C(O)c1ccc(Oc2cnc(NC(=O)C(Oc3ccc(F)cc3F)c3ccc(S(=O)(=O)N4CCCCC4)cc3)s2)cc1` (centres unmarked) [Example B50, 4-(2-{2-(2,4-Difluoro-phenoxy)-2-[4-(piperidine-1-sulfonyl)-phenyl]-acetylamino}-thiazol-5-yloxy)-benzoic acid], in experiment [1], the EC50 was 280 nM and the Emax stood at 90%.

For the molecule `O=C(O)c1ccc(Oc2cnc(NC(=O)C(OC3CCOCC3)c3ccc(S(=O)(=O)C4CC4)cc3)s2)c(F)c1` (centres unmarked) [Example B94, 4-{2-[2-(4-Cyclopropanesulfonyl-phenyl)-2-(tetrahydro-pyran-4-yloxy)-acetylamino]-thiazol-5-yloxy}-3-fluoro-benzoic acid], in the experiment on primary rat hepatocytes, the fold induction at 10 µM came out at 8.7.

On to `O=C(O)Cc1ccc(Oc2cnc(NC(=O)C(OC3CCOCC3)c3ccc(S(=O)(=O)C4CC4)cc3)s2)cc1` (centres unmarked) [Example B100, (4-{2-[2-(4-Cyclopropanesulfonyl-phenyl)-2-(tetrahydro-pyran-4-yloxy)-acetylamino]-thiazol-5-yloxy}-phenyl)-acetic acid], for which, in experiment [1], the EC50 is 220 nM and the Emax amounted to 91%.

Take `NC(=O)c1cccc(Oc2cnc(NC(=O)C(Oc3ccc(F)cc3F)c3ccc(S(=O)(=O)C4CC4)cc3)s2)c1` (centres unmarked) [Example G3, 3-{2-[2-(4-Cyclopropanesulfonyl-phenyl)-2-(2,4-difluoro-phenoxy)-acetylamino]-thiazol-5-yloxy}-benzamide]: in experiment [1], the concentration giving a half-maximal response (EC50) is 200 nM and the Emax was 90%.
